Key:
diabetic mice = test: Preliminary ip and sc injections, duration of blood sugar lowering; format: in vivo, mouse; conditions: for blood sugars 24 hours after ip and sc injections: preliminary experiments
Method: Effects of chronic treatment with exendin-4 in mice. The biological activity of exendin-4, as measured by its ability to lower blood sugar, was much longer than we expected when given ip or subcutaneously to diabetic animals. […] This lead us to design a long-term experiment with exendin-4. At the initiation of the daily ip exendin-4 regimen in the mice fasting blood glucose was 145±51 mg/dl in the non-diabetic mice and 232±38 mg/dl in the diabetic mice. […] Glucose levels dropped to 90±11 mg/dl in the exendin-4-treated animals from 238±51 mg/dl (p<0.002) in the NaCl-treated animals (Table 1). We measured fasting insulin levels in the diabetic animals that received NaCl or exendin-4. They were higher in the animals that received exendin-4 (p<0.002). […] We surmised that the decreased urination in the exendin-4-treated diabetic mice was due to less osmotic diuresis because of lower blood glucose.
This was possibly due to greater variation in the sc technique and perhaps even loss of the peptide during injections in some cases.

islets of Langerhans = test: cAMP determinations in isolated islets; format: cell-based, rat
Method: cAMP determinations. Islets of Langerhans were harvested from Wistar rats (Perfetti et al., 1995) and batches of 25 islets were then incubated for 1 h at 37° C. in a buffer containing (mM) 140 NaCl, 5 KCl, 1 NaPO4 1 MgSO4, 5 glucose, 2 CaCl2, 20 HEPES, buffer (pH 7.4) and 0.1% bovine serum albumin. Following this, they were incubated in the same buffer for 1 h in the presence of GLP-1 (1 nM) or exendin-4 (1 nM). Some batches of islets were then washed three times with ice-cold phosphate buffer saline (PBS) and lysed with 1 ml ice-cold […] perchloric acid. Other batches were washed three times in the buffer at 37° C. to remove peptide and left another 15 min before being washed three times in ice-cold PBS followed by lysis with the perchloric acid. The lysates (950 μl) were then transferred to microcentrifuge tubes and cAMP measured as previously described (See Example 1) using a cAMP [^3H] assay kit (Amersham).

AR42J cells [1] = test: Immunocytochemistry of insulin- and glucagon-positive AR42J cells; format: cell-based, rat
Method: Cell culture. AR42J cells were maintained in Dulbecco's modified Eagle's medium (DMEM) supplemented with 10% fetal calf serum (FBS), 100 IU/ml penicillin, 100 μg/ml streptomycin and 2 mM glutamine. Cells from passage 23–35 were used throughout this study. Cells were routinely plated at a density of about 10^5 cells/ml in 12-well cluster dishes or on coverslips and incubated in a humidified incubator at 37° C. with 95% air and 5% CO2.
Immunocytochemistry analysis. Cells were cultured on glass coverslips, washed with phosphate buffered saline (PBS) to remove serum, and fixed with 0.5% glutaraldehyde in PBS. Cells were permeabilized with 0.2% Triton X-100 for 5 min and the rest of the procedure was carried out at room temperature in a humidified chamber. Suction was used to remove reagents between each step but drying of specimens was avoided. Sufficient reagent was used to cover each specimen (approximately 1 or 2 drops was usually adequate). The coverslips were incubated in 0.3% H2O2 in PBS for 30 min to quench endogenous peroxidase activity and washed in PBS×3 times, followed by incubation with 2% goat serum in PBS for 30 min to block non-specific binding of IgG. Excess serum was removed by blotting. The specific primary polyclonal antisera (anti-insulin 1:300; anti-glucagon 1:300) were used. Antibody was diluted in PBS containing 1% goat serum. This was applied to the coverslip and incubated at room temperature for 1 h. The coverslips were washed ×3 times in PBS, each time for 5 min, then incubated with biotinylated second antibody for 1 h and washed ×3 times with PBS. Avidin-biotin-peroxidase complex in PBS was applied for 30 min. Immunoperoxidase labeling was performed with a Vectostain ABC kit (Vector Labs, Burlingame, Calif.). After extensive washing in PBS for 4–5 times (each 5 min), the coverslips were incubated in diaminobenzidine tetrahydrochloride (DAB) in PBS, with 0.01% hydrogen peroxide for 3 min. The reaction was stopped by washing the coverslips in PBS and examined under a light microscope. To confirm specific staining, samples incubated with preabsorbed primary antibody were used as negative control, and the insulin producing cell line RIN 1046-38 cells were used as positive control for our experiments. The avidin-biotin-peroxidase (ABC) procedure was performed according to methods known in the art (Hsu et al., 1981).

AR42J cells [2] = test: Intracellular calcium in single AR42J cells (indo-1); format: cell-based, rat
Method: Measurement of intracellular calcium, [Ca^2+]l. AR42J cells were loaded with the fluorescent Ca^2+ probe, indo-1 acetoxymethyl ester (indo-1/AM). […] Both loading with indo-1 and the experiments were carried out at room temperature (22–24° C.). […] The emission field was restricted to a single cell. Indo-1 was excited at 350±5 nm every 5 ms, and the fluorescence emission was split into wavelength bands of 410±5 and 490±5 nm. […] The cell autofluorescence was assessed in a large number of indo-1 non-loaded cells from the same batch. […] Routinely, the cells were exposed to the test solution for 240–300s. Thereafter, the test solution was washed out, while [Ca^2+]l was monitored for additional 120–180s. The test solutions were prepared just prior to the experiment by adding the hormones in standard bathing solution.

AR42J cells [3] = test: RT-PCR of insulin and glucagon mRNA in AR42J cells; format: cell-based, rat
Method: Reverse-transcription polymerase chain reaction (RT-PCR). Total RNA was isolated from treated AR42J cells by the methods of Chomczynski and Sacchi (1987). The total RNA samples were pretreated with DNAse in 20 mM Tris-HCL (pH 8.4), 2 mM MgCl2 and 50 mM KCl to remove any traces of contaminating genomic DNA. RT-PCR was undertaken in a volume of 50 μl of buffer containing 50 mM KCl, 10 mM Tris-HCl, 3.5 mM MgCl2, 200 μM each dNTPs, 0.4 μM each of sense and antisense primers to rat insulin I and II (insulin sense primer=5′[…]3′; insulin antisense primer=5′[…] 3′). Amplification was undertaken for 25 cycles at denaturing temperature 94° C. for 1 min, annealing temperature 60° C. for 45 sec and an extension temperature 72° C. for 1 min. mRNA from RIN 1046-38 cells were used as a positive control. In the case of glucagon RT-PCR, the denaturing and extension temperature was similar to insulin except the annealing temperature was 65° C. for 1 min (glucagon sense primer=5′ […]3′; antisense primer=5′ […]3′). The RT-PCR products were visualized by ethidium bromide staining on 2% agarose gels.

[4] = 10 nM GLP-1 or 0.1 nM exendin-4, 3 days

Molecule	duration of lower blood sugars after an ip dose (diabetic mice)	blood sugars 24 hours after ip and sc injections (diabetic mice)	cAMP levels 15 min after removal of peptide by three washes (islets of Langerhans)	cAMP levels relative to GLP-1 (islets of Langerhans; 1 nM, 1 h)	AR42J cells converted into insulin-positive cells (AR42J cells [1]; [4]) [%]	lowest concentration at which some insulin-containing cells were seen (AR42J cells [1]; AR42J cells)	potency on [Ca2+]i relative to GLP-1 (AR42J cells [2])	concentration of maximum cAMP response (islets of Langerhans) [nM]	AR42J cells converted into insulin-positive cells (AR42J cells [1]; 1 nM GLP-1, 3 days) [%]	treated AR42J cells glucagon positive (AR42J cells [1]; 48 h, GLP-1 (10 nM)) [%]	treated AR42J cells insulin-positive (AR42J cells [1]; 48 h, GLP-1 (10 nM)) [%]	treated cells containing glucagon (AR42J cells [1]; 72 h, GLP-1 (10 nM))	cells remaining insulin-positive (AR42J cells [1]; for at least 7 days, GLP-1 (10 nM)) [%]	rat insulin I and II mRNA by RT-PCR (AR42J cells [3]; GLP-1-treated for 3 days, none in non-treated cells)	glucagon mRNA at 236 bp by RT-PCR (AR42J cells [3]; GLP-1-treated, 48 h)	peak [Ca2+]i amplitude, increase over resting indo-1 fluorescence ratio (IFR) (AR42J cells [2]; single cells)	AR42J cells showing [Ca2+]i response (AR42J cells [2]; single cells, CCK 1 nM, glucagon 10 nM)
exendin-4	up to 24 hours	lower blood sugars	returned to baseline	approximately 3 fold	~25	10^−11 molar	approximately one order of magnitude more potent										
CC[C@H](C)[C@H](NC(=O)[C@H](Cc1ccccc1)NC(=O)[C@H](CCC(=O)O)NC(=O)[C@H](CCCCN)NC(=O)[C@H](C)NC(=O)[C@H](C)NC(=O)[C@H](CCC(N)=O)NC(=O)CNC(=O)[C@H](CCC(=O)O)NC(=O)[C@H](CC(C)C)NC(=O)[C@H](Cc1ccc(O)cc1)NC(=O)[C@H](CO)NC(=O)[C@H](CO)NC(=O)[C@@H](NC(=O)[C@H](CC(=O)O)NC(=O)[C@H](CO)NC(=O)[C@@H](NC(=O)[C@H](Cc1ccccc1)NC(=O)[C@@H](NC(=O)CNC(=O)[C@H](CCC(=O)O)NC(=O)[C@H](C)NC(=O)[C@@H](N)Cc1c[nH]cn1)[C@@H](C)O)[C@@H](C)O)C(C)C)C(=O)N[C@@H](C)C(=O)N[C@@H](Cc1c[nH]c2ccccc12)C(=O)N[C@@H](CC(C)C)C(=O)N[C@H](C(=O)N[C@@H](CCCCN)C(=O)NCC(=O)N[C@@H](CCCNC(=N)N)C(N)=O)C(C)C [GLP-1]		back to baseline	returned to baseline		~25			1	~10	20	~6	fully half	~25	demonstrated a 187 bp rat insulin I and II mRNA	detected	1.5–2.5 fold	approximately 50%

Reference: US7056734B1, “Differentiation of non-insulin producing cells into insulin producing cells by GLP-1 or exendin-4 and uses thereof” (The United States of America as represented by the …, priority 1998, dated 2006)
